The source of these data is ChEMBL document CHEMBL1255374, “Species distribution and in vitro antifungal susceptibility patterns of 75 clinical isolates of Fusarium spp. from northern Italy” (2008).

≈ marks a conversion by molar mass, not a printed value.

What all share (format): functional
The subject of one experiment is Fusarium oxysporum. The experiment in a line: Antimicrobial activity against Fusarium oxysporum after 48 hrs by broth microdilution assay. (In general: Dilution methods test growth across graded concentrations, often in twofold steps.)
The subject of the next experiment is Fusarium proliferatum. Briefly: Antimicrobial activity against Fusarium proliferatum after 48 hrs by broth microdilution assay.
The test system of the next experiment is Fusarium solani. The experiment in a line: Antimicrobial activity against Fusarium solani after 48 hrs by broth microdilution assay.
Another experiment concerns Fusarium verticillioides. The experiment in a line: Antimicrobial activity against Fusarium verticillioides after 48 hrs by broth microdilution assay.
A further experiment concerns Fusarium subglutinans. The experiment in a line: Antimicrobial activity against Fusarium subglutinans after 48 hrs by broth microdilution assay.

One may read the MIC as the lowest concentration found to suppress growth. On to `C[C@@H]1[C@H](O)[C@@H](C)/C=C/C=C/C=C/C=C/C=C/C=C/C=C/[C@H](O[C@@H]2O[C@H](C)[C@@H](O)[C@H](N)[C@@H]2O)C[C@@H]2O[C@](O)(C[C@@H](O)C[C@@H](O)[C@H](O)CC[C@@H](O)C[C@@H](O)CC(=O)O[C@H]1C)C[C@H](O)[C@H]2C(=O)O` [AMPHOTERICIN B], for which the MIC is 2.3 µg/mL (≈ 2.49 µM) with Fusarium oxysporum; 1.7 µg/mL (≈ 1.84 µM) with Fusarium proliferatum; 1.25 µg/mL (≈ 1.35 µM) in the experiment on Fusarium solani; 1.53 µg/mL (≈ 1.66 µM) against Fusarium verticillioides; 3.3 µg/mL (≈ 3.57 µM) against Fusarium subglutinans.

Regarding `C[C@@H](c1ncncc1F)[C@](O)(Cn1cncn1)c1ccc(F)cc1F` [VORICONAZOLE], the MIC is 4 µg/mL (≈ 11.5 µM) in the experiment with Fusarium oxysporum; 4.2 µg/mL (≈ 12 µM) against Fusarium proliferatum; 9.21 µg/mL (≈ 26.4 µM) with Fusarium solani; 1.74 µg/mL (≈ 4.98 µM) in the experiment with Fusarium verticillioides; 5.6 µg/mL (≈ 16 µM) against Fusarium subglutinans.

As to `CCC(C)n1ncn(-c2ccc(N3CCN(c4ccc(OCC5COC(Cn6cncn6)(c6ccc(Cl)cc6Cl)O5)cc4)CC3)cc2)c1=O` (stereo not given) [ITRACONAZOLE], the MIC is more than 16 µg/mL in the experiment on Fusarium oxysporum; more than 16 µg/mL against Fusarium proliferatum; more than 16 µg/mL in the experiment with Fusarium solani; 3.33 µg/mL (≈ 4.72 µM) against Fusarium verticillioides; 10.8 µg/mL (≈ 15.3 µM) against Fusarium subglutinans.

Take `CC[C@@H]([C@H](C)O)n1ncn(-c2ccc(N3CCN(c4ccc(OC[C@@H]5CO[C@@](Cn6cncn6)(c6ccc(F)cc6F)C5)cc4)CC3)cc2)c1=O` [POSACONAZOLE]: the MIC came to 2.7 µg/mL (≈ 3.85 µM) with Fusarium oxysporum; 6.4 µg/mL (≈ 9.13 µM) against Fusarium proliferatum; 15.2 µg/mL (≈ 21.7 µM) in the experiment on Fusarium solani; 0.46 µg/mL (≈ 0.656 µM) in the experiment on Fusarium verticillioides; 10.8 µg/mL (≈ 15.3 µM) against Fusarium subglutinans.
